What was measured:
[1] = test system: HCV replication, genotype 1b (Huh-7 HCV replicon cell, sub-line 5-15); experiment: Replicon ELISA cell based assay, genotype 1b; conditions: Hepatitis C virus, Huh-7 HCV replicon cells, genotype 1b (sub-line 5-15), 72 hours, mean, assayed at least twice
Procedure: (§1) Replicon ELISA Cell Based Assay
(§2) 100 μL of medium containing 10% FCS were added to each well of clear, flat-bottomed 96 well microplates, excepting wells in the top row. Test compound was diluted in assay medium to twice the final required starting concentration from a 40 mM stock solution in DMSO. 200 μL of the starting dilution were introduced into two wells each in the top row and doubling dilutions made down the plate by the sequential transfer of 100 μL aliquots with thorough mixing in the wells; the final 100 μL were discarded. The two bottom rows were not used for compound dilutions. Huh-7 HCV replicon cell monolayers nearing confluency were stripped from growth flasks with versene-trypsin solution and the cells were resuspended in assay medium at either 2×10^5 cells/mL (sub-line 5-15; genotype 1b; Lohmann, V., Korner, F., Koch, J-O., Herian, U., Thielmann, L. and Bartenschlager, R., Science, 1999, 285, 110-113) or at 3×10^5 cells/mL (genotype 1a; Gu, B., Gates, A. T., Isken, O., Behrens, S. E. and Sarisky, R. T., J. Virol., 2003, 77, 5352-5359). 100 μL of cell suspension were added to all wells and the plates incubated at 37° C. for 72 hours in a 5% CO2 atmosphere.
(§3) Following incubation, the assay medium was aspirated from the plates. The cell sheets were washed by gentle immersion in phosphate buffered saline (PBS), which was then aspirated off, and fixed with acetone:methanol (1:1) for 5 minutes. Following a further wash with PBS, 100 μL of ELISA diluent (PBS+0.05% v/v Tween 20+2% w/v skimmed milk powder) were added to all wells and the plates incubated at 37° C. for 30 minutes on an orbital platform. The diluent was removed and each well then received 50 μL of a 1/200 dilution of anti-HCV specific, murine, monoclonal antibody (either Virostat #1872 or #1877), except for wells in one of the compound-free control rows which received diluent alone to act as negative controls. The plates were incubated at 37° C. for 2 hours and washed 3 times with PBS/0.05% Tween 20, then 50 μL of horseradish peroxidase conjugated, anti-mouse, rabbit polyclonal serum (Dako #P0260), diluted 1/1000, were added to all wells. The plates were incubated for a further hour, the antibody removed and the cell sheets washed 5 times with PBS/Tween and blotted dry. The assay was developed by the addition of 50 μL of ortho-phenylenediamine/peroxidase substrate in urea/citrate buffer (SigmaFast, Sigma #P-9187) to each well, and colour allowed to develop for up to 15 minutes. The reaction was stopped by the addition of 25 μL per well of 2 M sulphuric acid and the plates were read at 490 nm on a Fluostar Optima spectrophotometer.
(§4) The substrate solution was removed and the plates were washed in tap water, blotted dry and the cells stained with 5% carbol fuchsin in water for 30 minutes. The stain was discarded and the cell sheets washed, dried and examined microscopically to assess cytotoxicity.
(§5) The absorbance values from all compound-free wells that had received both primary and secondary antibodies were averaged to obtain a positive control value. The mean absorbance value from the compound-free wells that had not received the primary antibody was used to provide the negative (background) control value. The readings from the duplicate wells at each compound concentration were averaged and, after the subtraction of the mean background from all values, were expressed as a percentage of the positive control signal. The quantifiable and specific reduction of expressed protein detected by the ELISA in the presence of a drug can be used as a measure of replicon inhibition. GraFit software (Erithacus Software Ltd.) was used to plot the curve of percentage inhibition against compound concentration and derive the 50% inhibitory concentration (IC50) for the compound.

[2] = test system: HCV replication, genotype 1a (Huh-7 HCV replicon cell); experiment: Replicon ELISA cell based assay, genotype 1a; conditions: Hepatitis C virus, Huh-7 HCV replicon cells, 72 hours, mean, assayed at least twice
Procedure: as §1, §2, §3, §4, §5

SMILES | IC50 [1] | IC50 [2]
CC(C)N(c1cc(-c2ccc(-c3nc4c(N)cccc4o3)cc2)sc1C(=O)O)C(=O)[C@H]1CC[C@H](C)CC1 [Example 16, 5-[4-(4-Amino-1,3-benzoxazol-2-yl)phenyl]-3-[[(trans-4-methylcyclohexyl)carbonyl](1-methylethyl)amino]-2-thiophenecarboxylic acid] | 10 to 50 nM | 10 to 50 nM
CC(C)N(c1cc(-c2ccc(-c3cnc4occc4c3)cc2)sc1C(=O)O)C(=O)[C@H]1CC[C@H](C)CC1 [Example 9, 5-(4-Furo[2,3-b]pyridin-5-ylphenyl)-3-[[(trans-4-methylcyclohexyl)carbonyl](1-methylethyl)amino]-2-thiophenecarboxylic acid] | 50 to 100 nM | 100 to 500 nM
CC(C)N(c1cc(-c2ccc(-c3cn4cc(N)ccc4n3)cc2)sc1C(=O)O)C(=O)[C@H]1CC[C@H](C)CC1 [Example 27, 5-[4-(6-Aminoimidazo[1,2-a]pyridin-2-yl)phenyl]-3-[[(trans-4-methylcyclohexyl)carbonyl](1-methylethyl)amino]-2-thiophenecarboxylic acid] | 100 to 500 nM | 100 to 500 nM
Cc1ccn2nc(-c3ccc(-c4cc(N(C(=O)[C@H]5CC[C@H](C(F)(F)F)CC5)C(C)C)c(C(=O)O)s4)cc3)cc2n1 [Example 26, 3-((1-Methylethyl){[trans-4-(trifluoromethyl)cyclohexyl]carbonyl}amino)-5-[4-(5-methylpyrazolo[1,5-a]pyrimidin-2-yl)phenyl]-2-thiophenecarboxylic acid] | 500 to 1000 nM | 100 to 500 nM
Cc1cc(N)n2nc(-c3ccc(-c4cc(N(C(=O)[C@H]5CC[C@H](C)CC5)C(C)C)c(C(=O)O)s4)cc3)cc2n1 [Example 5, 5-[4-(7-Amino-5-methylpyrazolo[1,5-a]pyrimidin-2-yl)phenyl]-3-[[(trans-4-methylcyclohexyl)carbonyl](1-methylethyl)amino]-2-thiophenecarboxylic acid] | < 5 nM | < 5 nM
CC(C)N(c1cc(-c2ccc(-c3ccc4cc[nH]c4c3)cc2)sc1C(=O)O)C(=O)[C@H]1CC[C@H](C)CC1 [Example 42, 5-[4-(1H-Indol-6-yl)phenyl]-3-[[(trans-4-methylcyclohexyl)carbonyl](1-methylethyl)amino]-2-thiophenecarboxylic acid] | 10 to 50 nM | 100 to 500 nM
CCN(c1cc(-c2ccc(-c3cc4ncccn4n3)cc2)sc1C(=O)O)C(=O)[C@H]1CC[C@H](C)CC1 [Example 40, Ammonium 3-{ethyl[(trans-4-methylcyclohexyl)carbonyl]amino}-5-(4-pyrazolo[1,5-a]pyrimidin-2-ylphenyl)-2-thiophenecarboxylate] | 5 to 10 nM | 100 to 500 nM
CC(C)N(c1cc(-c2ccc(-c3cc4ncccc4o3)cc2)sc1C(=O)O)C(=O)[C@H]1CC[C@H](C)CC1 [Example 1, 5-(4-Furo[3,2-b]pyridin-2-ylphenyl)-3-[[(trans-4-methylcyclohexyl)carbonyl](1-methylethyl)amino]-2-thiophenecarboxylic acid] | 10 to 50 nM | 10 to 50 nM
C[C@H]1CC[C@H](C(=O)N(CC2CC2)c2cc(-c3ccc(-c4cc5ncccn5n4)cc3)sc2C(=O)O)CC1 [Example 35, 3-{(Cyclopropylmethyl)[(trans-4-methylcyclohexyl)carbonyl]amino}-5-(4-pyrazolo[1,5-a]pyrimidin-2-ylphenyl)-2-thiophenecarboxylic acid] | 5 to 10 nM | 10 to 50 nM
CC(C)N(c1cc(-c2ccc(-c3nc4ncccc4o3)cc2)sc1C(=O)O)C(=O)[C@H]1CC[C@H](C(F)(F)F)CC1 [Example 25, 3-((1-Methylethyl){[trans-4-(trifluoromethyl)cyclohexyl]carbonyl}amino)-5-(4-[1,3]oxazolo[4,5-b]pyridin-2-ylphenyl)-2-thiophenecarboxylic acid] | 100 to 500 nM | 100 to 500 nM
CC(C)N(c1cc(-c2ccc(-c3cc4ncccn4n3)cc2)sc1C(=O)O)C(=O)[C@H]1CC[C@H](C(F)(F)F)CC1 [Example 15, 3-((1-Methylethyl){[trans-4-(trifluoromethyl)cyclohexyl]carbonyl}-amino)-5-(4-pyrazolo[1,5-a]pyrimidin-2-ylphenyl)-2-thiophenecarboxylic acid] | 50 to 100 nM | 100 to 500 nM
CC(C)N(c1cc(-c2ccc(-c3cc4cc(N)ccc4o3)cc2)sc1C(=O)O)C(=O)[C@H]1CC[C@H](C)CC1 [Example 29, 5-[4-(5-Amino-1-benzofuran-2-yl)phenyl]-3-[[(trans-4-methylcyclohexyl)carbonyl](1-methylethyl)amino]-2-thiophenecarboxylic acid] | 100 to 500 nM | 100 to 500 nM
CC(C)N(c1cc(-c2ccc(-c3cc4ncccn4n3)s2)sc1C(=O)O)C(=O)[C@H]1CC[C@H](C)CC1 [Example 36, 4-[[(trans-4-Methylcyclohexyl)carbonyl](1-methylethyl)amino]-5′-pyrazolo[1,5-a]pyrimidin-2-yl-2,2′-bithionhene-5-carboxylic acid] | 10 to 50 nM | 10 to 50 nM
CC(C)N(c1cc(-c2ccc(-c3nc4cccc(O)c4o3)cc2)sc1C(=O)O)C(=O)[C@H]1CC[C@H](C)CC1 [Example 20, 5-[4-(7-Hydroxy-1,3-benzoxazol-2-yl)phenyl]-3-[[(trans-4-methylcyclohexyl)carbonyl](1-methylethyl)amino]-2-thiophenecarboxylic acid] | 10 to 50 nM | 100 to 500 nM
CC(C)N(c1cc(-c2ccc(-c3cc4nccc(N)n4n3)cc2)sc1C(=O)O)C(=O)[C@H]1CC[C@H](C)CC1 [Example 7, 5-[4-(7-Aminopyrazolo[1,5-a]pyrimidin-2-yl)phenyl]-3-[[(trans-4-methylcyclohexyl)carbonyl](1-methylethyl)amino]-2-thiophenecarboxylic acid] | < 5 nM | < 5 nM
CC(=O)c1ccc(-c2cc(N(C(=O)[C@H]3CC[C@H](C)CC3)C(C)C)c(C(=O)O)s2)cc1 [Compound E, 5-(4-Acetylphenyl)-3-[[(trans-4-methylcyclohexyl)carbonyl](1-methylethyl)amino]-2-thiophenecarboxylic acid, reference compound] | 1000 to 5000 nM | 1000 to 5000 nM
CC(C)N(c1cc(-c2ccc(-c3cc4nccc(N)n4n3)c(Cl)c2)sc1C(=O)O)C(=O)[C@H]1CC[C@H](C)CC1 [Example 33, 5-[4-(7-Aminopyrazolo[1,5-a]pyrimidin-2-yl)-3-chlorophenyl]-3-[[(trans-4-methylcyclohexyl)carbonyl](1-methylethyl)amino]-2-thiophenecarboxylic acid] | < 5 nM | < 5 nM
CC(C)N(c1cc(-c2ccc(-c3ccc(Cl)cc3)cc2)sc1C(=O)O)C(=O)[C@H]1CC[C@H](C)CC1 [Compound C, 5-(4′-Chloro-4-biphenylyl)-3-[[(trans-4-methylcyclohexyl)carbonyl](1-methylethyl)amino]-2-thiophenecarboxylic acid, reference compound] | > 5000 nM | 1000 to 5000 nM
Cc1ccn2nc(-c3ccc(-c4cc(N(C(=O)[C@H]5CC[C@H](C)CC5)C(C)C)c(C(=O)O)s4)cc3)cc2n1 [Example 6, 3-[[(trans-4-Methylcyclohexyl)carbonyl](1-methylethyl)amino]-5[4-(5-methylpyrazolo[1,5-a]pyrimidin-2-yl)phenyl]-2-thiophenecarboxylic acid] | 10 to 50 nM | 50 to 100 nM
CC(C)N(c1cc(-c2ccc(C#N)cc2)sc1C(=O)O)C(=O)[C@H]1CC[C@H](C)CC1 [Compound D, 5-(4-Cyanophenyl)-3-[[(trans-4-methylcyclohexyl)carbonyl](1-methylethyl)amino]-2-thiophenecarboxylic acid, reference compound] | 1000 to 5000 nM | 1000 to 5000 nM

Reference: patent publication US20090136448A1, “Antiviral 2-Carboxy-Thiophene Compounds” (priority 2005, published 2009)
